Results from patent US20060030585A1, “Tricyclic delta-opioid modulators” (priority 2004, published 2006).
pEC50, pKi: −log10 of the molar value.

Tests used:
[1] = molecular target: delta opioid receptor (Rattus norvegicus, UniProt P33533); test: Rat brain delta opioid receptor binding assay ([3H]DPDPE); settings: DOR Ki, Rat delta opioid receptor binding constant; rat forebrain membranes, ~4 nM [3H]DPDPE
Summary of the method: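 Forebrain membranes from male Sprague Dawley rats in 50 mM Tris HCl pH 7.4 with 5 mM MgCl2, incubated with ~4 nM [3H]DPDPE for 2.5 h at 25° C., then filtered and counted. Single concentrations give % inhibition of specific binding; concentration ranges give Ki.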

[2] = molecular target: mu opioid receptor (Rattus norvegicus, UniProt P33535); test: Rat brain mu opioid receptor binding assay ([3H]DAMGO); settings: MOR Ki, Rat mu opioid receptor binding constant; rat forebrain membranes, ~0.8 nM [3H]DAMGO
mu opioid receptor, sequence (P33535 whole entry): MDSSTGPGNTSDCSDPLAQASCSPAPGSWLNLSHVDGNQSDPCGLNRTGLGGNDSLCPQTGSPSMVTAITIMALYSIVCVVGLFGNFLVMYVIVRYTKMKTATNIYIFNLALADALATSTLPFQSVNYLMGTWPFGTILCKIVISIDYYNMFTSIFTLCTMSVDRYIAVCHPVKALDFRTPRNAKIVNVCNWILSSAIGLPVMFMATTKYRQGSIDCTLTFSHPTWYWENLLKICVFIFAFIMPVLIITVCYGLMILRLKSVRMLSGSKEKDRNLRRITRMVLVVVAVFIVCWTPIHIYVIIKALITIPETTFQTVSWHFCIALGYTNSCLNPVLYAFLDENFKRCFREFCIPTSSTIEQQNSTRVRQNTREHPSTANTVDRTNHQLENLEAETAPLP

[3] = molecular target: T1, delta opioid receptor (NG108-15 cell membranes) (Mus musculus, UniProt P32300); test: [35S]GTPγS binding assay in NG108-15 cell membranes (delta opioid); type: biochemical; settings: DOR GTPγS EC50, NG108-15 cell membranes, agonist-stimulated [35S]GTPγS binding
T1 construct: NG108-15 cell membranes were purchased from Applied Cell Sciences (Rockville, Md.); host or cells: NG108-15 cell membranes (purchased)
T1 sequence (P32300 whole entry): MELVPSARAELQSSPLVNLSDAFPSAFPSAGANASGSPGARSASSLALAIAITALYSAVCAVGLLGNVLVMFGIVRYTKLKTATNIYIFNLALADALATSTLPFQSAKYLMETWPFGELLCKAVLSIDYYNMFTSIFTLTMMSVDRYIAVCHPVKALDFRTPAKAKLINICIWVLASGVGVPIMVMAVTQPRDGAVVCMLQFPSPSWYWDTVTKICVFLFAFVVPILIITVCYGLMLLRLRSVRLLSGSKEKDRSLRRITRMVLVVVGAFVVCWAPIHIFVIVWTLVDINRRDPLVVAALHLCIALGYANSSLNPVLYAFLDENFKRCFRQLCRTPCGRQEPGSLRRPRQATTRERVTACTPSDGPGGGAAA
Protocol: [^35S]GTPγS Binding Assay in NG108-15 Cell Membranes (delta opioid)
Methods: NG108-15 cell membranes were purchased from Applied Cell Sciences (Rockville, Md.). 8 mg/mL of membrane protein suspended in 10 mM TRIS-HCl pH 7.2, 2 mM EDTA, 10% sucrose. Membranes were maintained at 4-8° C. A 1 mL volume of membranes was added into 10 mL cold binding assay buffer. The assay buffer contained 50 mM Tris, pH 7.6, 5 mM MgCl2, 100 mM NaCl, 1 mM DTT and 1 mM EGTA. The membrane suspension was homogenized twice with a Polytron, and centrifuged at 3000 rpm for 10 min. The supernatant was then centrifuged at 18,000 rpm for 20 min. Ten mL assay buffer was added into the pellet containing tube. The pellet and buffer were mixed with a Polytron.
Incubation procedure: The pellet membranes (75 μg/mL) were preincubated with SPA (10 mg/mL) at 25° C. for 45 min in the assay buffer. […] GTPγS in the same Tris buffer containing 100 μM GDP in total volume of 200 μL. Increasing concentrations of receptor agonists were used to stimulate [35S]-GTPγS binding. The basal binding was tested in the absence of agonists and non-specific binding was tested in the presence of 10 μM unlabeled GTPγS. The data were analyzed on a Packard Top Count.
% of Basal=(stimulated−non specific)*100/(basal−non specific). EC50 value values were calculated using GraphPad Prism.

[4] = molecular target: T2, hMOR (CHO-hMOR cell membranes) (Homo sapiens, UniProt P35372); test: [35S]GTPγS binding assay in CHO-hMOR cell membranes; type: biochemical
T2 construct: host or cells: CHO cells expressing hMOR (purchased membranes)
T2 sequence (P35372 whole entry): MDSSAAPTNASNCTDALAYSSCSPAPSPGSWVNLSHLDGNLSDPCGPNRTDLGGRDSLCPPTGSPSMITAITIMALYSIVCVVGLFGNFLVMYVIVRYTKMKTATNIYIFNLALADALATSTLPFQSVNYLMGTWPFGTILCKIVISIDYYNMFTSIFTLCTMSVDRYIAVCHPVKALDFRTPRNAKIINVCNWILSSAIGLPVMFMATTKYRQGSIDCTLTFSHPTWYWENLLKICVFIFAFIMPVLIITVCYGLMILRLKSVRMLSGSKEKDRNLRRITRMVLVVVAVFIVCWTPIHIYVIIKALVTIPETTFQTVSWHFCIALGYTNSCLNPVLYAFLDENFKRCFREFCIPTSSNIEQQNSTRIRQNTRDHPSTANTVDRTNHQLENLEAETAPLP
Protocol: [^35]GTPγS Binding Assays in CHO-hMOR Cell Membranes
Methods: CHO-hMOR cell membranes were purchased from Receptor Biology, Inc. (Baltimore, Md.). About 10 mg/mL of membrane protein was suspended in 10 mM TRIS-HCl pH 7.2, 2 mM EDTA, 10% sucrose, and the suspension kept on ice. A 1 mL volume of membranes was added to 15 mL cold binding assay buffer containing 50 mM HEPES, pH 7.6, 5 mM MgCl2, 100 mM NaCl, 1 mM DTT and 1 mM EDTA. The membrane suspension was homogenized with a Polytron and centrifuged at 3,000 rpm for 10 min. The supernatant was then centrifuged at 18,000 rpm for 20 min. The pellet was resuspended in 10 mL assay buffer with a Polytron. The membranes were preincubated with wheat germ agglutinin coated SPA beads (Amersham) at 25° C. for 45 min in the assay buffer. The SPA bead (5 mg/mL) coupled membranes (10 μg/mL) were then incubated with 0.5 nM [^35S]GTPγS in the assay buffer. […] A range of concentrations of receptor agonist was used to stimulate [35S]GTPγS binding. Both basal and non-specific binding was tested in the absence of agonist; non-specific binding determination included 10 μM unlabeled GTPγS.
Compounds were tested for function as antagonists by evaluating their potential to inhibit agonist-stimulated GTPγS binding. Radioactivity was quantified on a Packard TopCount. The following parameters were calculated: [formula] [formula]
EC50 values were calculated using GraphPad Prism.

delta opioid receptor, sequence (P33533 whole entry): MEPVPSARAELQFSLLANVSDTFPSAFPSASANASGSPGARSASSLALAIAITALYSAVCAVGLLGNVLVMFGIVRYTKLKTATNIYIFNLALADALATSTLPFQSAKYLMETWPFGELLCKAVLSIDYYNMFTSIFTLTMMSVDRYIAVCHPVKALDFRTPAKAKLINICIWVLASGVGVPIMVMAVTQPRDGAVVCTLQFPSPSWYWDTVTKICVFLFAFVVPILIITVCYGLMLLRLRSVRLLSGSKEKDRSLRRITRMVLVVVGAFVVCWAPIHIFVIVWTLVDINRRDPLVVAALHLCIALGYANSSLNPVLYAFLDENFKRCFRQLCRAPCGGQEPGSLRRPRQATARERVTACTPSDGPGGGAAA

## Cn1nnc(-c2ccc3c(c2)Oc2ccccc2C3=C2CC3CCC(C2)N3)n1 [Cpd 16, 3-[3-(2-Methyl-2H-tetrazol-5-yl)-xanthen-9-ylidene]-8-aza-bicyclo[3.2.1]octane]
[1]
  pKi: 7.52
[2]
  pKi: 5.84
[3]
  pEC50: 6.24
[4]
  pEC50: 9.32
